From patent US6518423B1, “Benzopiperidine derivatives” (Eisai Co., Ltd., priority 1996, dated 2003)

Compound | melting point
CC(C)c1nccn1Cc1ccc2c(c1)Nc1nccnc1S2 | 241 to 242 °C
c1cc(-c2cn(Cc3ccc4c(c3)Nc3nccnc3S4)cn2)ccn1 | 157 to 158 °C
O=C(O)c1ccc(-c2cn(Cc3ccc4c(c3)Nc3nccnc3S4)cn2)cc1 | 264 to 266 °C
CS(=O)(=O)NCCc1cn(Cc2ccc3c(c2)Nc2nccnc2S3)cn1 | 173 to 176 °C
CS(=O)(=O)Nc1ccc(-c2cn(Cc3ccc4c(c3)Nc3nccnc3S4)cn2)cc1 | 253 to 255 °C
CC(=O)Nc1ccc(-c2cn(Cc3ccc4c(c3)Nc3nccnc3S4)cn2)cc1 | 261 to 263 °C
c1cn(CCCc2ccc3c(c2)Nc2nccnc2S3)cn1 | 139 to 141 °C
OC(c1ccc2c(c1)Nc1nccnc1S2)c1nccs1 (stereo not shown) | 110 to 114 °C
FC(F)(c1cccnc1)c1ccc2c(c1)Nc1nccnc1S2 | 183 to 184 °C
OC(C#Cc1ccccc1)c1ccc2c(c1)Nc1nccnc1S2 (stereo not shown) | 192 to 194 °C
CCCCC#CC(O)c1ccc2c(c1)Nc1nccnc1S2 (stereo not shown) | 116 to 118 °C
O=C(Nc1ccccc1)c1ccc2c(c1)Nc1nccnc1S2 | 281 to 282 °C
COCc1ccc2c(c1)Nc1nccnc1S2 | 189 to 192 °C
Cc1ncnc2c1ncn2Cc1ccc2c(c1)Nc1nccnc1S2 | 276 to 278 °C
Cc1nc2c(nc(C)n2Cc2ccc3c(c2)Nc2nccnc2S3)c(=O)[nH]1 | 206 to 211 °C
C[C@@H]1CN(c2ncnc3c2ncn3Cc2ccc3c(c2)Nc2nccnc2S3)C[C@H](C)O1 | 227 to 229 °C
O=C(O)CCCCCCCCCCSc1ncnc2ncn(Cc3ccc4c(c3)Nc3nccnc3S4)c12 | 166 to 170 °C
N#Cc1ccc2c(c1)Nc1nccnc1S2 | 263 to 264 °C
C#CC/N=C(\N)Cc1ccc2c(c1)Nc1nccnc1S2.Cl | 222 to 223 °C
NC(Cc1ccc2c(c1)Nc1nccnc1S2)=NO | 252 to 254 °C
CN(C)S(=O)(=O)NC1CN=C(Cc2ccc3c(c2)Nc2nccnc2S3)NC1 (stereo not shown) | 251 to 254 °C
CNC(Cc1ccc2c(c1)Nc1nccnc1S2)=NC#N | 233 to 234 °C (dec.)
CN(C)C(Cc1ccc2c(c1)Nc1nccnc1S2)=NC#N | 247 to 249 °C (dec.)
CC(=NC#N)NCc1ccc2c(c1)Nc1nccnc1S2 | 275 to 277 °C
N#CN=C(N)NCc1ccc2c(c1)Nc1nccnc1S2 | 246 to 248 °C

Compound | melting point
CS(=O)(=O)/N=C(\N)NCc1ccc2c(c1)Nc1nccnc1S2 | 244 to 245 °C
O=c1ccn(Cc2ccc3c(c2)Nc2ccncc2S3)cc1 | 168 °C (dec.)
CNS(=O)(=O)NC1CCN(Cc2ccc3c(c2)Nc2nccnc2O3)CC1 | 219 to 222 °C
c1ccc2c(c1)CCCN2Cc1ccc2c(c1)Nc1nccnc1S2 | 208 to 210 °C
COCN1c2cc(CCl)ccc2Sc2nccnc21 | 125 to 126 °C
C=CCN1c2ccccc2Nc2nccnc21 | 173 to 175 °C
CC(C)(C)OC(=O)CN1c2ccccc2Nc2nccnc21 | 199 to 201 °C
c1ccc(CN2c3ccccc3Nc3nccnc32)cc1 | 194 to 196 °C
CN1c2ccc(I)cc2Nc2nccnc21 | > 275 °C
COCN1c2ccc(OC)cc2Nc2nccnc21 | 244 to 251 °C
O=C(O)CN1c2ccccc2Nc2nccnc21 | 210 to 212 °C
CN1c2cc(O)ccc2Nc2nccnc21 | > 275 °C
CCCN1c2ccccc2Nc2nccnc21 | 190 to 192 °C
CCOC(=O)/C=C/c1ccc2c(c1)Nc1nccnc1N2C | 190 to 191 °C
OC/C=C/CN1c2ccccc2Nc2nccnc21 | 197 to 199 °C
CCOC(=O)C#Cc1ccc2c(c1)Nc1nccnc1N2C | 232 to 235 °C
CCOC(=O)CC(=O)c1ccc2c(c1)Nc1nccnc1N2C | 88 to 89 °C
c1ccc(NCc2ccc3c(c2)Nc2nccnc2S3)nc1 | 208 to 212 °C
Cc1cc(NCc2ccc3c(c2)Nc2nccnc2S3)cc(C)n1 | 230 to 235 °C
CC(C)Oc1ccc(NCc2ccc3c(c2)Nc2nccnc2S3)cn1 | 145 to 148 °C
OCCc1ccc(NCc2ccc3c(c2)Nc2nccnc2S3)cn1 | 138 to 142 °C
CCOC(=O)CSc1ccc(NCc2ccc3c(c2)Nc2nccnc2S3)cn1 | 118 to 122 °C
OCCSc1ccc(NCc2ccc3c(c2)Nc2nccnc2S3)cn1 | 138 to 142 °C
Brc1ccc(NCc2ccc3c(c2)Nc2nccnc2S3)nc1 | 265 to 268 °C
CCNC(=O)N(Cc1ccc2c(c1)Nc1nccnc1S2)c1cccnc1 | 210 to 212 °C

Further lines, results first:

melting point | Compound
> 288 °C (dec.) | CC/C(=C\c1ncn(Cc2ccc3c(c2)Nc2nccnc2S3)c1C)C(=O)O
264 to 266 °C | Cc1c(C(C)(C)O)ncn1Cc1ccc2c(c1)Nc1nccnc1S2
211 to 212 °C | c1cnn(Cc2ccc3c(c2)Nc2nccnc2S3)c1
249 to 251 °C | C/C(=C\C1C2(C)CCCC1(C)CN(Cc1ccc3c(c1)Nc1nccnc1S3)C2)C(=O)O (stereo not shown)
158 °C (dec.) | O=C(O)C1CC2CCC(C1)N2Cc1ccc2c(c1)Nc1nccnc1S2 (stereo not shown)
191 to 193 °C | CN(CCCCCC(=O)O)Cc1ccc2c(c1)Nc1nccnc1S2
88 to 92 °C | CC(CO)C1C2CCCC1CN(Cc1ccc3c(c1)Nc1nccnc1S3)C2 (stereo not shown)
197 to 202 °C | CN1CCN(c2ncnc3c2ncn3Cc2ccc3c(c2)Nc2nccnc2S3)CC1
215 to 218 °C | CS(=O)(=O)/N=C/N1CCN(C(=N)Cc2ccc3c(c2)Nc2nccnc2S3)CC1.Cl
127 to 129 °C | COC(=O)CC1C2CCCC1CN(Cc1ccc3c(c1)Nc1nccnc1S3)C2 (stereo not shown)
132 to 135 °C | OCCCCC1CCN(Cc2ccc3c(c2)Nc2nccnc2S3)CC1
233 to 235 °C | O=C1C=CN(Cc2ccc3c(c2)Nc2nccnc2S3)CC1
209 to 211 °C | NC(=O)C1CCCCN1Cc1ccc2c(c1)Nc1nccnc1S2 (stereo not shown)
119 to 122 °C | CS(=O)(=O)/N=C/NC1CCN(Cc2ccc3c(c2)Nc2nccnc2S3)CC1
212 to 214 °C | CS(=O)(=O)/N=C/N1CCN(Cc2ccc3c(c2)Nc2nccnc2S3)CC1
204 to 209 °C | CS(=O)(=O)/N=C(\N)C1CCN(Cc2ccc3c(c2)Nc2nccnc2S3)CC1
241 to 243 °C | CS(=O)(=O)NC1CCN(Cc2ccc3c(c2)Nc2nccnc2O3)CC1
199 to 201 °C | O=S(=O)(NC1CCN(Cc2ccc3c(c2)Nc2nccnc2S3)CC1)C(F)(F)F
159 to 162 °C | O=C1OCCC1=C1CCN(Cc2ccc3c(c2)Nc2nccnc2S3)CC1
285 to 288 °C (dec.) | Nc1c(N2CCN(Cc3ccc4c(c3)Nc3nccnc3S4)CC2)c(=O)c1=O
192 to 195 °C | OC1CC2CN(Cc3ccc4c(c3)Nc3nccnc3S4)CC2C1 (stereo not shown)
57 to 60 °C | OCCC12CCN(Cc3ccc4c(c3)Nc3nccnc3S4)CC1C2 (stereo not shown)
238 °C (dec.) | C1=NCCCN1Cc1ccc2c(c1)Nc1nccnc1S2.Cl
238 to 241 °C (dec.) | N#CN=CN1CCN(Cc2ccc3c(c2)Nc2nccnc2S3)CC1
186 to 188 °C | O=C1CCN(Cc2ccc3c(c2)Nc2nccnc2S3)CC1
265 to 271 °C (dec.) | N=C(N)N1CCN(Cc2ccc3c(c2)Nc2nccnc2S3)CC1
215 to 220 °C | O=C(O)CC1CC(C2CCN(Cc3ccc4c(c3)Nc3nccnc3S4)CC2)C1 (stereo not shown)

melting point | Compound
121 to 124 °C | O=C(O)CCCN1CCC(NCc2ccc3c(c2)Nc2nccnc2S3)CC1
113 to 115 °C | CC(CCC1CCN(Cc2ccc3c(c2)Nc2ncccc2S3)CC1)C(=O)O (stereo not shown)
242 to 244 °C | O=C(O)C1CCN(Cc2ccc3c(c2)Nc2nccnc2O3)CC1
265 to 268 °C | O=C(O)c1ccc(C2CCN(Cc3ccc4c(c3)Nc3nccnc3S4)CC2)cc1
174 to 176 °C | COc1ccc(C2CCN(Cc3ccc4c(c3)Nc3nccnc3S4)CC2)cc1CC(=O)O
195 to 196 °C | O=C(O)CNS(=O)(=O)NC1CCN(Cc2ccc3c(c2)Nc2nccnc2S3)CC1
181 to 183 °C | O=C(O)C1CN(Cc2ccc3c(c2)Nc2nccnc2S3)C1
225 to 226 °C | CCC1(CC(=O)O)CCN(Cc2ccc3c(c2)Nc2nccnc2S3)CC1
238 to 241 °C | O=C(O)C=C1CC2(CCN(Cc3ccc4c(c3)Nc3nccnc3S4)CC2)C1
> 275 °C | O=C(O)C1C2CN(Cc3ccc4c(c3)Nc3nccnc3S4)CC21 (stereo not shown)
178 to 180 °C | O=C(O)C1CC2(CCN(Cc3ccc4c(c3)Nc3nccnc3S4)CC2)O1 (stereo not shown)
146 to 148 °C | O=C(O)COCC1CCN(Cc2ccc3c(c2)Nc2nccnc2S3)CC1
163 °C (dec.) | O=C(O)C(F)C1CCN(Cc2ccc3c(c2)Nc2nccnc2S3)CC1 (stereo not shown)
145 °C (dec.) | O=C(O)CC1CCC2(CC1)CN(Cc1ccc3c(c1)Nc1nccnc1S3)C2
146 °C (dec.) | O=C(O)C1CCC2(CC1)CCN(Cc1ccc3c(c1)Nc1nccnc1S3)C2 (stereo not shown)
225 to 230 °C | O=C(O)Cc1ccc(OCC2CCN(Cc3ccc4c(c3)Nc3nccnc3S4)CC2)cc1
229 to 230 °C (dec.) | CC(CCC1CCN(CCc2ccc3c(c2)Nc2nccnc2S3)CC1)C(=O)O (stereo not shown)
148 to 152 °C | O=C(O)CSC1CCN(Cc2ccc3c(c2)Nc2nccnc2S3)CC1
180 to 185 °C | CC(C)(CCC1CCN(Cc2ccc3c(c2)Nc2nccnc2S3)CC1)C(=O)O
98 to 99 °C | O=C(O)C(O)C1CCN(Cc2ccc3c(c2)Nc2nccnc2S3)CC1 (stereo not shown)
178 to 180 °C | O=C(O)C1=CCCN(Cc2ccc3c(c2)Nc2nccnc2S3)C1
218 to 220 °C | CC(CC(=O)O)C1CCN(Cc2ccc3c(c2)Nc2nccnc2S3)CC1 (stereo not shown)
158 to 161 °C | O=C(O)c1ccc(CC2CCN(Cc3ccc4c(c3)Nc3nccnc3S4)CC2)cc1
130 to 132 °C | CC(C)(O)C(=O)CC(SCC(=O)O)C1CCN(Cc2ccc3c(c2)Nc2nccnc2S3)CC1 (stereo not shown)
173 to 175 °C | c1cnc2c(n1)Nc1cc(CNCC3CCNCC3)ccc1S2
108 to 113 °C | O=C(O)COCCC1C2CCCC1CN(Cc1ccc3c(c1)Nc1nccnc1S3)C2 (stereo not shown)
